In the supplement of paper PMC10307832:

Tests used:
Assay in all cases: relative viability (nuclei count vs DMSO), 5 days (fraction); higher = more cells survive
Masitinib + Dasatinib = compound: Cc1ccc(NC(=O)c2ccc(CN3CCN(C)CC3)cc2)cc1Nc1nc(-c2cccnc2)cs1 [Masitinib] + Cc1nc(Nc2ncc(C(=O)Nc3c(C)cccc3Cl)s2)cc(N2CCN(CCO)CC2)n1 [Dasatinib] (partner 0.075 µM)
Outline: (§1)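 The day after seeding in 1536-well plates, lung cancer cell lines were treated by pin tool with a single drug, or with a fixed anchor-drug dose together with five library-drug doses (not always all listed) in √10 steps. After 5 days, a combined fix-and-stain solution (final 0.05% Triton X-100, 1% formaldehyde, 1 ug/ml Hoechst) was added. Nuclei counted on 4× images gave relative viability as treated counts over vehicle counts, reported as the median of duplicate plates.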

[1] = compound: CC1=CC(=CC=C1)NC2=NC(=CS2)C3=CC=NC=C3 + CS(=O)(=O)N1CCN(Cc2cc3nc(-c4cccc5[nH]ncc45)nc(N4CCOCC4)c3s2)CC1 [Pictilisib] (partner 1 µM)
Outline: as §1

[2] = compound: CC1=CC(=CC=C1)NC2=NC(=CS2)C3=CC=NC=C3 + CC(C)C[C@H](NC(=O)[C@H](Cc1ccccc1)NC(=O)c1cnccn1)B(O)O [Bortezomib] (partner 0.002 µM)
Outline: as §1

[3] = compound: CC1=CC(=CC=C1)NC2=NC(=CS2)C3=CC=NC=C3 + O=C(c1cc(Cc2n[nH]c(=O)c3ccccc23)ccc1F)N1CCN(C(=O)C2CC2)CC1 [Olaparib] (partner 8 µM)
Outline: as §1

Cell Line | relative viability (Masitinib + Dasatinib; first compound 0.01 µM) | relative viability (Masitinib + Dasatinib; first compound 0.03162 µM) | relative viability (Masitinib + Dasatinib; first compound 0.1 µM) | relative viability (Masitinib + Dasatinib; first compound 0.3162 µM) | relative viability (Masitinib + Dasatinib; first compound 1 µM) | relative viability ([1]; first compound 0.08 µM) | relative viability ([1]; first compound 0.253 µM) | relative viability ([1]; first compound 0.8 µM) | relative viability ([1]; first compound 2.53 µM) | relative viability ([1]; first compound 8 µM) | relative viability ([2]; first compound 0.08 µM) | relative viability ([2]; first compound 0.253 µM) | relative viability ([2]; first compound 0.8 µM) | relative viability ([2]; first compound 2.53 µM) | relative viability ([2]; first compound 8 µM) | relative viability ([3]; first compound 0.08 µM) | relative viability ([3]; first compound 0.253 µM) | relative viability ([3]; first compound 0.8 µM) | relative viability ([3]; first compound 2.53 µM) | relative viability ([3]; first compound 8 µM)
HCC-78 | 0.468 | 0.312 | 0.392 | 0.468 | 0.366 | 0.204 | 0.198 | 0.261 | 0.219 | 0.22 | 0.409 | 0.473 | 0.469 | 0.414 | 0.274 | 0.713 | 0.791 | 0.842 | 0.685 | 0.674
HCC-366 | – | 0.654 | – | 0.619 | 0.609 | 0.146 | 0.11 | 0.132 | 0.157 | 0.121 | 0.875 | 1.04 | 0.998 | 1.06 | 0.985 | 0.352 | 0.331 | 0.261 | 0.286 | 0.21
HCC-827 | 0.269 | 0.286 | 0.275 | 0.314 | 0.293 | 0.72 | 0.875 | 1.12 | 0.895 | 0.812 | 1.05 | 0.903 | 0.946 | 0.974 | 0.882 | 0.639 | 0.635 | 0.661 | 0.717 | 0.654
HOP-62 | 0.604 | 0.632 | 0.785 | 0.634 | 0.606 | 0.581 | 0.758 | 1.09 | 0.668 | 0.903 | 0.673 | 0.784 | 1.16 | 0.588 | 0.496 | 0.445 | 0.5 | 0.471 | 0.48 | 0.512
IA-LM | – | – | – | – | – | 0.24 | 0.337 | 0.415 | 0.267 | 0.427 | 0.803 | – | 0.705 | 0.511 | 0.494 | 0.8 | 0.779 | 0.605 | 0.475 | 0.714
LC-2-ad | 0.47 | 0.587 | 0.639 | 0.523 | 0.554 | 0.365 | 0.366 | 0.478 | 0.369 | 0.436 | 0.884 | 0.94 | 1.13 | 0.873 | 0.875 | 0.661 | 0.693 | 0.657 | 0.627 | 0.616
LCLC-97TM1 | – | 0.961 | 0.903 | 0.943 | 0.84 | – | – | 0.282 | 0.207 | 0.198 | 0.715 | 0.478 | 0.476 | 0.365 | 0.463 | 0.419 | 0.304 | 0.343 | 0.411 | 0.379
LCLC-103H | 0.41 | 0.467 | 0.462 | 0.437 | 0.445 | 0.402 | 0.54 | 0.551 | 0.572 | 0.546 | 0.995 | 1.12 | 1.05 | 1.1 | 0.635 | 0.631 | 0.725 | 0.704 | 0.748 | 0.546
LK-2 | 0.336 | 0.243 | 0.289 | 0.306 | 0.263 | 0.572 | 0.569 | 0.853 | – | 0.674 | – | – | – | – | – | 0.665 | 0.762 | 0.903 | 0.824 | 1.09
NCI-H358 | 0.155 | 0.158 | 0.166 | 0.161 | 0.133 | 0.289 | 0.345 | 0.307 | 0.381 | 0.38 | – | – | – | – | – | 0.547 | 0.519 | 0.521 | 0.5 | 0.521
NCI-H522 | 0.818 | – | 0.823 | 0.887 | 0.879 | – | – | – | – | – | – | – | – | – | – | 0.708 | 0.579 | 0.746 | 0.544 | 0.704
NCI-H1299 | – | – | – | – | – | 0.779 | 0.839 | 0.779 | 0.88 | 0.899 | 0.973 | 0.983 | 0.91 | 1.04 | 0.885 | 1.01 | 1 | 0.889 | 0.904 | 0.854
NCI-H1395 | 0.415 | 0.404 | 0.404 | 0.395 | 0.426 | 0.569 | 0.602 | 0.531 | 0.627 | 0.697 | – | – | – | – | – | 0.439 | – | 0.478 | 0.46 | 0.43
NCI-H1563 | 0.399 | 0.481 | 0.49 | 0.481 | 0.415 | 0.675 | 0.616 | 0.712 | 0.617 | 0.592 | 0.794 | 0.842 | 0.808 | 0.836 | 0.59 | – | – | – | – | –
NCI-H1648 | – | – | – | – | – | – | – | – | – | – | – | – | – | – | – | 0.545 | 0.412 | 0.656 | 0.477 | 0.392
NCI-H1703 | – | – | – | – | – | 0.229 | 0.243 | 0.238 | 0.282 | 0.262 | 0.241 | 0.317 | 0.334 | 0.336 | 0.331 | 0.313 | 0.33 | 0.359 | 0.585 | 0.447
NCI-H1793 | 0.415 | 0.398 | 0.396 | 0.356 | 0.462 | – | 0.326 | 0.357 | 0.22 | 0.264 | – | – | – | – | – | 0.889 | 0.647 | 0.799 | 0.68 | 0.81
NCI-H1944 | – | 0.204 | – | 0.215 | 0.213 | 0.29 | 0.309 | 0.327 | 0.304 | 0.297 | – | – | – | – | – | 0.377 | 0.379 | 0.377 | 0.327 | 0.377
NCI-H2170 | 0.5 | 0.473 | 0.547 | 0.56 | 0.519 | 0.296 | 0.287 | 0.301 | 0.271 | 0.276 | – | – | – | – | – | 0.589 | 0.631 | 0.473 | 0.531 | 0.425
NCI-H2342 | 0.326 | 0.334 | 0.3 | 0.301 | 0.34 | – | – | – | – | – | – | – | – | – | – | 0.438 | 0.468 | 0.398 | 0.476 | 0.395
SK-MES-1 | 0.319 | 0.359 | 0.392 | 0.286 | 0.335 | 0.275 | 0.276 | 0.341 | 0.358 | 0.346 | – | – | – | – | – | 0.423 | 0.437 | 0.466 | 0.457 | 0.401
SW 900 | 0.613 | 0.473 | 0.706 | 0.499 | 0.477 | – | – | – | – | – | – | – | – | – | – | 0.751 | 0.667 | 0.693 | 0.433 | 0.543
